Measured values reported in ChEMBL document CHEMBL5331104, “Discovery of BRD4-HDAC Dual Inhibitors with Improved Fungal Selectivity and Potent Synergistic Antifungal Activity against Fluconazole-Resistant Candida albicans” (J Med Chem, 2023).
≈ marks a conversion by molar mass, not a printed value. Calls of active or inactive are those of the source. No cut-off for these calls is given here.

Columns and labels:
[1] = system: Candida albicans; assay: (§1) Synergetic antifungal activity against Candida albicans 10061 assessed as microbial growth inhibition incubated for 24 hrs in the presence of (S)-4-((2-(6-(4-Chlorophenyl)-1-methyl-7,8,9,10-tetrahydro-4H-benzo-(4,5)thieno[3,2-f][1,2,4]triazolo(4,3-a)(1,4)diazepin-4-yl)-acetamido)-methyl)-N-hydroxybenzamide by checkerboard microdilution method; format: functional
[2] = system: Candida albicans; assay: Synergetic antifungal activity against Candida albicans 0304103 assessed as microbial growth inhibition incubated for 24 hrs in the presence of (S,E)-3-(4-(2-(6-(4-Chlorophenyl)-1-methyl-7,8,9,10-tetrahydro-4H-benzo-(4,5]thieno(3,2-f)(1,2,4)triazolo(4,3-a)(1,4]diazepin-4-yl)acetamido)pheny1)N-hydroxyacrylamide by checkerboard microdilution method; format: functional
[3] = system: Candida albicans; assay: microbe, parasite or virus in culture; format: functional; details: 0304103
Description: Antifungal activity against Candida albicans 0304103 assessed as microbial growth inhibition

[4] = system: Candida albicans; assay: Antifungal activity against Candida albicans 0304103 assessed as reduction in yeast to hypha transition at 32 ug/mL incubated for 2 hrs by inverse fluorescence microscopy; format: functional, organism-based; details: dose 32.0 µg/ml
[5] = system: Candida albicans; assay: Downregulation of ADH5 expression in Candida albicans 0304103 at 32 ug/mL incubated for 24 hrs by RT q-PCR analysis; format: functional; details: dose 32.0 µg/ml
[6] = system: Candida albicans; assay: Synergetic antifungal activity against Candida albicans 0304103 assessed as microbial growth inhibition incubated for 24 hrs in the presence of (S,E)-3-(4-(2-(8-Chloro-6-(2-chlorophenyl)-1-methyl-4H-benzo-[f][1,2,4]triazolo[4,3-a](1,4)diazepin-4-yl)acetamido)pheny1)-N-hydroxy-acrylamide by checkerboard microdilution method; format: functional
[7] = system: Candida albicans; assay: as §1, with “0304103” for “10061”; format: functional
[8] = system: Candida albicans; assay: Synergetic antifungal activity against Candida albicans 0304103 assessed as microbial growth inhibition incubated for 24 hrs in the presence of (S)-N-Hydroxy-4-((2-(1-methyl-6-(p-toly1)-4H-benzo[f](1,2,4)-triazolo-(4,3-a][1,4]diazepin-4-y1)acetamido)methyl)benzamide by checkerboard microdilution method; format: functional
[9] = system: Candida albicans; assay: Synergetic antifungal activity against Candida albicans 0304103 assessed as microbial growth inhibition incubated for 24 hrs in the presence of (S)-4-(2-(6-(4-Chlorophenyl)-1-methyl-4H-benzo[f](1,2,4)-triazolo(4,3-a)(1,4)diazepin-4-yl)acetamido)-N-hydroxybenzamide by checkerboard microdilution method; format: functional
[10] = system: Candida albicans; assay: as §1, with “9172” for “10061”; format: functional
[11] = system: Candida albicans; assay: Synergetic antifungal activity against Candida albicans 0304103 assessed as microbial growth inhibition incubated for 24 hrs in the presence of (S)-N-Hydroxy-2-(4-(2-(1-methyl-6-(p-toly1)-4H-benzo[f](1,2,4)-triazolo[4,3-a][1,4]diazepin-4-yl)acetamido)phenyl)acetamideby checkerboard microdilution method; format: functional
[12] = system: [Candida] auris; assay: Antifungal activity against Candida auris 0030 assessed as microbial growth inhibition; format: functional; details: Candidozyma auris
[13] = system: Candida albicans; assay: Synergetic antifungal activity against Candida albicans 0304103 assessed as microbial growth inhibition incubated for 24 hrs in the presence of (S)-2-(6-(4-Chlorophenyl)-1-methyl-4H-benzo[f][1,2,4]triazolo-14,3-a)(1,4)diazepin-4-yl)-N-(4-(2-(hydroxyamino)-2-oxoethyl)-phenyl)acetamide by checkerboard microdilution method; format: functional
[14] = system: Candida albicans; assay: Synergetic antifungal activity against Candida albicans 0304103 assessed as microbial growth inhibition incubated for 24 hrs in the presence of (S)-N-Hydroxy-2-(4-(2-(l-methyl-6-phenyl-4H-benzo[f](1,2,4)-triazolo-[4,3-a][1,4]diazepin 4-yl)acetamido)phenyl)acetamide by checkerboard microdilution method; format: functional
[15] = system: Candida albicans; assay: Downregulation of CDR2 expression in Candida albicans 0304103 at 32 ug/mL incubated for 24 hrs by RT q-PCR analysis; format: functional; details: dose 32.0 µg/ml
[16] = system: Candida albicans; assay: Synergetic antifungal activity against Candida albicans 0304103 assessed as microbial growth inhibition incubated for 24 hrs in the presence of (S)-N-Hydroxy-4-(2-(1-methyl-6-(p-toly1)-4H-benzo[f](1,2,4)-triazolo-(4,3-a][1,4]diazepin-4-yl)acetamido)benzamide by checkerboard microdilution method; format: functional
[17] = system: Candida albicans; assay: Synergetic antifungal activity against Candida albicans 0304103 assessed as microbial growth inhibition incubated for 24 hrs in the presence of (S,E)-3-(4-(2-(6-(4-Chlorophenyl)-1-methy1-4H-benzo[f][1,2,4]-triazolo(4,3-a)[1,4]diazepin-4-yl)acetamido)phenyl)-N-hydroxyacrylamide by checkerboard microdilution method; format: functional
[18] = system: Candida albicans; assay: Downregulation of GCA1 expression in Candida albicans 0304103 at 32 ug/mL incubated for 24 hrs by RT q-PCR analysis; format: functional; details: dose 32.0 µg/ml
[19] = system: [Candida] auris; assay: as §1, with “auris 0029” for “albicans 10061”; format: functional; details: Candidozyma auris
[20] = system: [Candida] auris; assay: as §1, with “auris 0030” for “albicans 10061”; format: functional; details: Candidozyma auris
[21] = system: Candida albicans; assay: Synergetic antifungal activity against Candida albicans 0304103 assessed as microbial growth inhibition incubated for 24 hrs in the presence of (S)-2-(6-(4-Chlorophenyl)-1-methyl-7,8,9,10-tetrahydro-4H-benzo-(4,5)thieno[3,2-f][1,2,4]triazolo(4,3-a)(1,4)diazepin-4-yl)-N-(4-(2-(hydroxyamino)-2-oxoethyl)phenyl)acetamide by checkerboard microdilution method; format: functional
[22] = system: Candida albicans; assay: Synergetic antifungal activity against Candida albicans 0304103 assessed as microbial growth inhibition incubated for 24 hrs in the presence of (S,E)-N-Hydroxy-3-(4-(2-(l-methyl-6-phenyl-4H-benzo[f][1,2,4]-triazolo[4,3-a][1,4]diazepin-4-y1)acetamido)phenyl)acrylamide by checkerboard microdilution method; format: functional
[23] = system: Candida albicans; assay: Synergetic antifungal activity against Candida albicans 0304103 assessed as microbial growth inhibition incubated for 24 hrs in the presence of SAHA by checkerboard microdilution method; format: functional
[24] = system: Candida albicans; assay: Downregulation of CDR1 expression in Candida albicans 0304103 at 32 ug/mL incubated for 24 hrs by RT q-PCR analysis; format: functional; details: dose 32.0 µg/ml
[25] = system: Candida albicans; assay: Synergetic antifungal activity against Candida albicans 0304103 assessed as microbial growth inhibition incubated for 24 hrs in the presence of (S)-4-(2-(6-(4-Chlorophenyl)-1-methyl-7,8,9,10-tetrahydro-4Hbenzo-[4,5]thieno(3,2-f)(1,2,4)triazolo(4,3-a)[1,4]diazepin-4-yl)-acetamido)-N-hydroxybenzamide by checkerboard microdilution method; format: functional
[26] = system: Candida albicans; assay: Synergetic antifungal activity against Candida albicans 0304103 assessed as microbial growth inhibition incubated for 24 hrs in the presence of (+)-JQ1 by checkerboard microdilution method; format: functional
[27] = system: Candida albicans; assay: Synergetic antifungal activity against Candida albicans 0304103 assessed as microbial growth inhibition incubated for 24 hrs in the presence of (S, E)-N-Hydroxy-3-(4-(2-(1-methyl-6-(p-tolyl)-4H-benzo(f)-(1,2,4)triazolo(4,3-a)[1,4]diazepin-4-y)acetamido)phenyl)-acrylamide by checkerboard microdilution method; format: functional
[28] = system: Cryptococcus neoformans; assay: Antifungal activity against Cryptococcus neoformans 011405 assessed as microbial growth inhibition; format: functional
[29] = system: Candida albicans; assay: Synergetic antifungal activity against Candida albicans 0304103 assessed as microbial growth inhibition incubated for 24 hrs in the presence of (S)-2-(8-Chloro-6-(2-chlorophenyl)-1-methyl-4H-benzo[f][1,2,4]-triazolo(4,3-a][1,4]diazepin-4-y1)-N-(4-(2-(hydroxyamino)-2-oxoethyl)-phenyl)acetamide by checkerboard microdilution method; format: functional
[30] = system: Cryptococcus neoformans; assay: Antifungal activity against Cryptococcus neoformans H99 assessed as fungal growth inhibition incubated for 24 hrs by broth dilution method; format: functional
[31] = system: Candida albicans; assay: Antifungal activity against Candida albicans 9172 assessed as microbial growth inhibition; format: functional
[32] = system: Candida albicans; assay: Antibiofilm activity against FLC-resistant Candida albicans 0304103 assessed as inhibition of biofilm formation at 64 ug/mL incubated for 24 hrs by XTT reduction assay; format: functional, organism-based; details: dose 64.0 µg/ml
[33] = system: Nakaseomyces glabratus; assay: Antifungal activity against Candida glabrata 4408 assessed as microbial growth inhibition; format: functional
[34] = system: Candida albicans; assay: Antifungal activity against Candida albicans 9884 assessed as microbial growth inhibition; format: functional
[35] = system: Nakaseomyces glabratus; assay: as §1, with “glabrata 4408” for “albicans 10061”; format: functional
[36] = system: Candida albicans; assay: Antifungal activity against Candida albicans 10061 assessed as microbial growth inhibition; format: functional

## OC(Cn1cncn1)(Cn1cncn1)c1ccc(F)cc1F [FLUCONAZOLE]
[1]
  MIC80: 1 mg/L
[2]
  MIC80: 0.25 mg/L
[3]
  MIC80: > 64 mg/L
[4]
  Activity: inactive
[5]
  Activity: inactive
[6]
  MIC80: 0.5 mg/L
[7]
  MIC80: 2 mg/L
[8]
  MIC80: 1 mg/L
[9]
  MIC80: 4 mg/L
[10]
  MIC80: 0.5 mg/L
[11]
  MIC80: 1 mg/L
[12]
  MIC80: > 64 mg/L
[13]
  MIC80: 16 mg/L
[14]
  MIC80: 4 mg/L
[15]
  Activity: inactive
[16]
  MIC80: 1 mg/L
[17]
  MIC80: 0.25 mg/L
[18]
  Activity: Active
[19]
  MIC80: 64 mg/L
[20]
  MIC80: 64 mg/L
[21]
  MIC80: 0.5 mg/L
[22]
  MIC80: 2 mg/L
[23]
  MIC80: 4 mg/L
[24]
  Activity: inactive
[25]
  MIC80: 1 mg/L
[26]
  MIC80: > 64 mg/L
[27]
  MIC80: 2 mg/L
[28]
  MIC80: 8 mg/L (≈ 26.1 µM)
[29]
  MIC80: 1 mg/L
[30]
  MIC80: 1 mg/L (≈ 3.27 µM)
[31]
  MIC80: > 64 mg/L
[32]
  Activity: inactive
[33]
  MIC80: 64 mg/L (≈ 209 µM)
[34]
  MIC80: 2 mg/L (≈ 6.53 µM)
[35]
  MIC80: 2 mg/L
[36]
  MIC80: > 64 mg/L
